Measurements published in patent publication EP4703354A1, “COMPOUND AS CCR6 ANTAGONIST, AND PHARMACEUTICAL COMPOSITION AND USE THEREOF” (Wuhan Createrna Science and Technology Co.,Ltd., priority 2023, dated 2024).

Assay: in vivo pharmacokinetic study in SD rats
Details: male, rat, plasma; for bioavailability: 1 mg/kg PO vs 1 mg/kg IV, read-out: Oral bioavailability F (%); for AUC(0-t) / Cmax / half-life: 1 mg/kg
Outline: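 Male SD rats (180-200 g), 3 per route: single fasted oral gavage in 1% Tween 80 or tail-vein IV bolus in 50% PEG400. Orbital blood into EDTA-K2 sampled to 8 h; plasma analysed and PK parameters derived by non-compartmental analysis.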

SMILES	bioavailability [%]	AUC(0-t) (IV) [ng·h/mL]	Cmax (IV) [ng/mL]	half-life (IV) [min]	AUC(0-t) (PO) [ng·h/mL]	Cmax (PO) [ng/mL]	half-life (PO) [min]
CN(C)C(=O)c1nccc(Nc2c(N[C@@H](C#CC3CCC3)[C@]3(C)CC(F)(F)CO3)c(=O)c2=O)c1O (single isomer, unassigned) [110A]	68.6	580	1860	19.2	397	311	55.8
CN(C)C(=O)c1nccc(Nc2c(N[C@@H](c3nc(Cl)ccc3F)[C@@]3(C)CC(F)(F)CO3)c(=O)c2=O)c1O [068B, 4-((2-(((S)-(6-chloro-3-fluoropyridin-2-yl)((R)-4,4-difluoro-2-methyltetrahydrofuran-2-yl)methyl)amino)-3,4-dioxocyclobut-1-en-1-yl)amino)-3-hydroxy-N,N-dimethylpicolinamide]	23.4	1270	3630	15	298	291	91.8
Cc1cc(F)cnc1[C@H](Nc1c(Nc2ccnc(C(=O)N(C)C)c2O)c(=O)c1=O)[C@]1(C)CC(F)(F)CO1 [093A, 4-((2-(((S)-((S)-4,4-difluoro-2-methyltetrahydrofuran-2-yl)(5-fluoro-3-methylpyridin-2-yl)methyl)amino)-3,4-dioxocyclobut-1-en-1-yl)amino)-3-hydroxy-N,N-dimethylpicolinamide]	23.7	1240	4840	14.4	295	271	66
